# Read-outs that look alike come from different tables or passages of the source.
# Experiments:
# THR beta-LBD = target: T1, THR beta-LBD (Homo sapiens, UniProt P10828); experiment: THR-β Coactivator Peptide Recruitment Assay (LanthaScreen TR-FRET); format: biochemical
# T1 construct: THR beta-LBD (the final concentration is 0.5 nM) was added to the 384-well assay plate; purchased Invitrogen PV4686
# T1 sequence (P10828 217-461 limits assumed): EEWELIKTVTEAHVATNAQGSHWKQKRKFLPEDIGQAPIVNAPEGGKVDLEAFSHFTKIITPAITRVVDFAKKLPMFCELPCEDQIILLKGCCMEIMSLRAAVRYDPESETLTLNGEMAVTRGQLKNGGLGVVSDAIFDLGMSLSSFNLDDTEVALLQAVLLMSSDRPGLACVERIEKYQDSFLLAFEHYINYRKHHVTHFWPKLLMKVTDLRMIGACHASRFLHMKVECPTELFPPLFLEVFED
# Description: (§1) A time-resolved FRET (TR-FRET) assay was used to test representative compounds of the application.
# (§2) THR-β Coactivator Peptide Recruitment Assay were conducted by using Invitrogen's LanthaScreen™ TR-FRET Thyroid Receptor beta Assay Kit (Catalog no. PV4686). Binding of an agonist to the nuclear receptor causes a subsequent binding of a coactivator peptide, resulting in fluorescence energy transfer from the labelled nuclear receptor to the proximal coactivator peptide, which reflects the binding affinity of the agonist and the nuclear receptor. The assay was conducted by following the manufacturer's instructions. Briefly, THR beta-LBD (the final concentration is 0.5 nM) was added to the 384-well assay plate containing test compounds, followed by addition of Fluorescein-SRC2-2 coactivator peptide and terbium (Tb)-labeled anti-GST antibody. The final concentration of THR beta-LBD, Fluorescein-SRC2-2 coactivator peptide and terbium (Tb)-labeled anti-GST antibody is 0.5 nM, 0.1 nM and 2 nM, respectively. After a gentle mix and incubation at room temperature for 2 h, the signal was read on the EnVision Multilabel Plate Reader at wavelengths of 520 nm and 495 nm. TR-FRET ratio was calculated by dividing the emission signal at 520 nm and the emission signal at 495 nm, and then was plotted against a sigmoidal dose response curve (four parameters, GraphPad™ Prism 8) to determine the EC50 value.
# THR alpha-LBD = target: T2, THR alpha-LBD (Homo sapiens, UniProt P10827); experiment: THR-α Coactivator Peptide Recruitment Assay (LanthaScreen TR-FRET); format: biochemical
# T2 construct: except that THR alpha-LBD of a final concentration 0.25 nM was used; purchased Invitrogen PV4687
# T2 sequence (P10827 163-410 isoform P10827-2 limits assumed, other chains not shown): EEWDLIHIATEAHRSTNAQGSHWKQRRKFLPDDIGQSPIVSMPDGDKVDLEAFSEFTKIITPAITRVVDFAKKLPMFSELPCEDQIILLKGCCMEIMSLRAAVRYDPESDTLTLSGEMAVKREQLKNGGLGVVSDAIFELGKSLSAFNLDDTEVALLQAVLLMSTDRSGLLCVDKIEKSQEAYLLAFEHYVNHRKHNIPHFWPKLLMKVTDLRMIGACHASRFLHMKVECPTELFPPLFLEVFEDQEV
# Description: as §1, §2
# THR-α Coactivator Peptide Recruitment Assay were conducted by using Invitrogen's LanthaScreen™ TR-FRET Thyroid Receptor alpha Assay Kit (Catalog no. PV4687), following the same method described above except that THR alpha-LBD of a final concentration 0.25 nM was used.
# [1] = TR-FRET coactivator recruitment, THR beta-LBD 0.5 nM
# [2] = TR-FRET coactivator recruitment, THR beta-LBD 0.5 nM, read-out: THRβ EC50
# [3] = TR-FRET coactivator recruitment, THR alpha-LBD 0.25 nM
# [4] = TR-FRET coactivator recruitment, THR alpha-LBD 0.25 nM, read-out: THRα EC50
SMILES,THRβ Emax (THR beta-LBD; [1]),EC50 (THR beta-LBD; [2]) [nM],THRα Emax (THR alpha-LBD; [3]),EC50 (THR alpha-LBD; [4]) [nM],EC50 (THR beta-LBD) [nM],EC50 (THR alpha-LBD) [nM]
"O=c1[nH]c(=O)n(-c2cc(Cl)c(Oc3ccc(O)c(S(=O)(=O)N4CCC(O)CC4)c3)c(Cl)c2)nc1C(F)F [Compound 16, 2-(3,5-dichloro-4-(4-hydroxy-3-((4-hydroxypiperidin-1-yl)sulfonyl)phenoxy)phenyl)-6-(difluoromethyl)-1,2,4-triazine-3,5(2H,4H)-dione]",B (75~90),< 2,A (85~110),2 to 200,,
"N#CC1(NS(=O)(=O)c2cc(Oc3c(Cl)cc(-n4nc(C(F)F)c(=O)[nH]c4=O)cc3Cl)ccc2O)CC1 [Compound 17, N-(1-cyanocyclopropyl)-5-(2,6-dichloro-4-(6-(difluoromethyl)-3,5-dioxo-4,5-dihydro-1,2,4-triazin-2(3H)-yl)phenoxy)-2-hydroxybenzenesulfonamide]",A (90~110),< 2,A (85~110),2 to 200,,
O=c1[nH]c(=O)n(-c2cc(Cl)c(Oc3ccc(O)c(S(=O)(=O)N[C@H]4C[C@H](C(=O)NC5CC5)C4)c3)c(Cl)c2)nc1C(F)F [Compound 18],B (75~90),2 to 20,B (40~85),200 to 1000,,
"O=c1[nH]c(=O)n(-c2cc(Cl)c(Oc3ccc(O)c(S(=O)(=O)NC4CC4)c3)c(Cl)c2)nc1C(F)(F)F [Compound 19, N-cyclopropyl-5-[2,6-dichloro-4-[3,5-dioxo-6-(trifluoromethyl)-1,2,4-triazin-2-yl]phenoxy]-2-hydroxy-benzenesulfonamide]",A (90~110),< 2,A (85~110),2 to 200,,
"CNS(=O)(=O)c1cc(Oc2c(Cl)cc(-n3nc(C(F)(F)F)c(=O)[nH]c3=O)cc2Cl)ccc1O [Compound 20, 5-(2,6-dichloro-4-(3,5-dioxo-6-(trifluoromethyl)-4,5-dihydro-1,2,4-triazin-2(3H)-yl)phenoxy)-2-hydroxy-N-methylbenzenesulfonamide]",A (90~110),2 to 20,A (85~110),2 to 200,,
"O=c1[nH]c(=O)n(-c2cc(Cl)c(Oc3ccc(O)c(S(=O)(=O)N4CCC(F)(F)CC4)c3)c(Cl)c2)nc1C(F)(F)F [Compound 21, 2-(3,5-dichloro-4-(3-((4,4-difluoropiperidin-1-yl)sulfonyl)-4-hydroxyphenoxy)phenyl)-6-(trifluoromethyl)-1,2,4-triazine-3,5(2H,4H)-dione]",A (90~110),2 to 20,B (40~85),2 to 200,,
"CNC(=O)C1(NS(=O)(=O)c2cc(Oc3c(Cl)cc(-n4nc(C(F)F)c(=O)[nH]c4=O)cc3Cl)ccc2O)CC1 [Compound 22, 1-[[5-[2,6-dichloro-4-[6-(difluoromethyl)-3,5-dioxo-1,2,4-triazin-2-yl]phenoxy]-2-hydroxy-phenyl]sulfonylamino]-N-methyl-cyclopropane carboxamide]",B (75~90),2 to 20,B (40~85),200 to 1000,,
"NC(=O)C1(NS(=O)(=O)c2cc(Oc3c(Cl)cc(-n4nc(C(F)F)c(=O)[nH]c4=O)cc3Cl)ccc2O)CC1 [Compound 24, 1-[[5-[2,6-dichloro-4-[6-(difluoromethyl)-3,5-dioxo-1,2,4-triazin-2-yl]phenoxy]-2-hydroxy-phenyl]sulfonylamino]cyclopropanecarboxamide]",A (90~110),< 2,A (85~110),2 to 200,,
"CNC(=O)C1(N[S@SP3](=O)(=O)c2cc(Oc3c(Cl)cc(-n4nc(C(F)(F)F)c(=O)[nH]c4=O)cc3Cl)ccc2O)CC1 [Compound 25, 1-((5-(2,6-dichloro-4-(3,5-dioxo-6-(trifluoromethyl)-4,5-dihydro-1,2,4-triazin-2(3H)-yl)phenoxy)-2-hydroxyphenyl)sulfonamido)-N-methylcyclopropane-1-carboxamide]",B (75~90),20 to 100,C (<40),> 1000,,
"N#CC1CC(N[S@SP3](=O)(=O)c2cc(Oc3c(Cl)cc(-n4nc(C(F)F)c(=O)[nH]c4=O)cc3Cl)ccc2O)C1 (stereo not drawn) [Compound 26, N-(3-cyanocyclobutyl)-5-[2,6-dichloro-4-[6-(difluoromethyl)-3,5-dioxo-1,2,4-triazin-2-yl]phenoxy]-2-hydroxy-benzenesulfonamide]",A (90~110),,A (85~110),,< 2,2 to 200
"O=c1[nH]c(=O)n(-c2cc(Cl)c(Oc3ccc(O)c(S(=O)(=O)N4CCC(F)(F)CC4)c3)c(Cl)c2)nc1C(F)F [Compound 27, 2-[3,5-dichloro-4-[3-[(4,4-difluoro-1-piperidyl)sulfonyl]-4-hydroxy-phenoxy]phenyl]-6-(difluoromethyl)-1,2,4-triazine-3,5-dione]",B (75~90),< 2,A (85~110),< 2,,
"O=c1[nH]c(=O)n(-c2cc(Cl)c(Oc3ccc(O)c(S(=O)(=O)N4CCC4)c3)c(Cl)c2)nc1C(F)F [Compound 28, 2-(4-(3-(azetidin-1-ylsulfonyl)-4-hydroxyphenoxy)-3,5-dichlorophenyl)-6-(difluoromethyl)-1,2,4-triazine-3,5(2H,4H)-dione]",B (75~90),< 2,A (85~110),< 2,,
"O=c1[nH]c(=O)n(-c2cc(Cl)c(Oc3ccc(O)c(S(=O)(=O)N[C@H]4CCOC4)c3)c(Cl)c2)nc1C(F)F [Compound 29, (S)-5-(2,6-dichloro-4-(6-(difluoromethyl)-3,5-dioxo-4,5-dihydro-1,2,4-triazin-2(3H)-yl)phenoxy)-2-hydroxy-N-(tetrahydrofuran-3-yl)benzenesulfonamide]",A (90~110),< 2,A (85~110),2 to 200,,
"O=c1[nH]c(=O)n(-c2cc(Cl)c(Oc3ccc(O)c(S(=O)(=O)N[C@@H]4CCOC4)c3)c(Cl)c2)nc1C(F)F [Compound 30, (R)-5-(2,6-dichloro-4-(6-(difluoromethyl)-3,5-dioxo-4,5-dihydro-1,2,4-triazin-2(3H)-yl)phenoxy)-2-hydroxy-N-(tetrahydrofuran-3-yl)benzenesulfonamide]",A (90~110),< 2,A (85~110),< 2,,
"O=c1[nH]c(=O)n(-c2cc(Cl)c(Oc3ccc(O)c(S(=O)(=O)N4CCNCC4)c3)c(Cl)c2)nc1C(F)F [Compound 31, 2-(3,5-dichloro-4-(4-hydroxy-3-(piperazin-1-ylsulfonyl)phenoxy)phenyl)-6-(difluoromethyl)-1,2,4-triazine-3,5(2H,4H)-dione]",C (<75),2 to 20,B (40~85),2 to 200,,
"O=C(C1CC1)N1CCN(S(=O)(=O)c2cc(Oc3c(Cl)cc(-n4nc(C(F)F)c(=O)[nH]c4=O)cc3Cl)ccc2O)CC1 [Compound 32, 2-(3,5-dichloro-4-(3-((4-(cyclopropanecarbonyl)piperazin-1-yl)sulfonyl)-4-hydroxyphenoxy)phenyl)-6-(difluoromethyl)-1,2,4-triazine-3,5(2H,4H)-dione]",C (<75),2 to 20,C (<40),2 to 200,,
"CN1CCN(S(=O)(=O)c2cc(Oc3c(Cl)cc(-n4nc(C(F)F)c(=O)[nH]c4=O)cc3Cl)ccc2O)CC1=O [Compound 33, 2-(3,5-dichloro-4-(4-hydroxy-3-((4-methyl-3-oxopiperazin-1-yl)sulfonyl)phenoxy)phenyl)-6-(difluoromethyl)-1,2,4-triazine-3,5(2H,4H)-dione]",C (<75),< 2,B (40~85),2 to 200,,
"CO[C@H]1C[C@H](NS(=O)(=O)c2cc(Oc3c(Cl)cc(-n4nc(C(F)F)c(=O)[nH]c4=O)cc3Cl)ccc2O)C1 [Compound 36, 5-(2,6-dichloro-4-(6-(difluoromethyl)-3,5-dioxo-4,5-dihydro-1,2,4-triazin-2(3H)-yl)phenoxy)-2-hydroxy-N-((1r,3r)-3-methoxycyclobutyl)benzenesulfonamide]",B (75~90),2 to 20,B (40~85),2 to 200,,
